No end group written: not given here.
Legend:
[1] = test system: 16HBE cells; test: WST-1 cell viability assay in 16HBE cells; format: cell-based, human; conditions: 50 μM, highest concentration tested
Experimental: (§1) For cytotoxicity measurements, cells were plated at a density of 75,000 cells/well in a 96-well plate and grown to confluence (2 days). Cells were then exposed to vehicle or TJDP and viability was measured at 24, 48 and 96 hours. WST-1 reagent (ROCHE) was diluted 20-fold into each well, and cells were incubated at 37° C. Duplicate readings were taken at 0.5 and 1 hour after addition using a THERMO MULTISKAN EX plate reader (A450—background A620). Media only wells were subtracted and values were normalized to media treated controls.

[2] = test system: 16HBE cells; test: TER measurement of tight junction disruption in 16HBE cells; format: cell-based, human; conditions: 12 and 96 μM, over 24 hours
Experimental: PHFK were isolated from discarded foreskin tissue. Isolation and propagation procedures for both PHFK and 16HBE cells were done as previously described (Poumay, Roland, Leclercq-Smekens, & Leloup, 1994; Saatian et al., 2013).
10 mgs of synthesized TJDP (RS SYNTHESIS) was dissolved in 100 μl of DMSO (SIGMA). Dissolved peptide was then diluted in pre-warmed (55 ° C.) DMSO/PLURONIC F127® (SPECTRUM) solution formulated in PBS (0.6% / 0.12%, respectively). This solution was heated at 55° C. for 30 minutes then homogenized into detergent using a water bath sonicator (BRANSON 2200) for 10 minutes and vortexed for 1 minute. Peptide was stored at 4° C. until use.
TER and paracellular flux were done as previously published (De Benedetto, Rafaels, et al., 2011). […] 2 μM of fluorescently-labeled antibody (palivizumab) was added to cells after 24 hours of exposure to TJDP and paracellular flux was measured 30 minutes and 18 hours later.
Initial experiments employed the human bronchial epithelial cell line, 16HBE since this cell line is known for its robust TJ formation (Saatian et al., 2013). […] The honeycomb fluorescence pattern of these proteins on the cell surface is a hallmark of a barrier competent TJ (Furuse, Fujita, Hiiragi, Fujimoto, & Tsukita, 1998; Furuse et al., 1993). […] The antibody diffusion was measured at 30 min to reduce the likelihood that active transcellular transport was measured.

[3] = test system: primary human foreskin keratinocytes (PHFK); test: WST-1 cell viability assay in PHFK; format: cell-based
Experimental: as §1

Substance	viability (WST-1) [1]	effect on TER values (control peptide) [2]	toxicity (WST-1) ([3]; 30 μM, p<0.05)	cell death (WST-1) ([3]; lower concentrations with robust inhibition of TJ formation)
SSVSQSTGQIQSKVFDSLLNLSSTLQATR [Peptide 1]	no loss of viability			
(FKFE)2		did not affect TER values		
SILTGVSTLDQSLKQLSNFSQAVSTQSSR [Peptide 2]	no loss of viability		Modest toxicity	no appreciable cell death

Reference: US20220249364A1, “Designed Inhibitors of Tight Junction Formation” (University of Rochester, priority 2019, published 2022)
